Source: PMC6857076 (Pharmacology Research & Perspectives, 2019)
Like-named read-outs stand apart in the source and are kept apart here.

Key:
[1] = unbound, Cav × fu
[2] = test system: CRP; conditions: RA, cited from earlier work
[3] = pooled RA clinical studies, cited from earlier work
[4] = test system: platelet counts; conditions: integrated analysis of phase 1b, 2, 3 and LTE RA studies, baricitinib 4 mg QD; cited from earlier work
[5] = integrated analysis of phase 1b, 2, 3 and LTE RA studies, baricitinib 4 mg QD; cited from earlier work
[6] = in vitro; conditions: both, human, pooled human plasma
[7] = human; baricitinib 4 mg QD; cited from earlier work
[8] = test system: NK cell counts; conditions: RA, baricitinib 4 mg QD, cited from earlier work
[9] = target: recombinant human kinase domain of TYK2 (Homo sapiens, UniProt P29597); experiment: Enzymatic microfluidic kinase assay, TYK2
Sequence of recombinant human kinase domain of TYK2 (P29597 897-1176 limits assumed): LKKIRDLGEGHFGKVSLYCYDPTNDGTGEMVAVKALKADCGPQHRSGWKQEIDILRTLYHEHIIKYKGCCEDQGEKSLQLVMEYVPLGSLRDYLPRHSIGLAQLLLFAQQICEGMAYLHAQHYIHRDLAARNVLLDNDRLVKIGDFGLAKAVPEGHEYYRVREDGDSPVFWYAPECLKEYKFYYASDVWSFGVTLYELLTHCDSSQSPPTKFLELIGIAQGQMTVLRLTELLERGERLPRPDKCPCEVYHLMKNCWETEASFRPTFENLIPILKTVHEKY

| Structure (SMILES) | Cav,u ([1]; baricitinib 4 mg QD) | reduction of CRP levels from baseline to week 12 ([2]; baricitinib 4 mg QD) | herpes zoster incidence rate ([3]; baricitinib 2 mg QD) | herpes zoster incidence rate ([3]; baricitinib 4 mg QD) | platelet counts vs baseline [4] | hemoglobin levels vs baseline [5] | fraction unbound at 6 h, 1 μmol/L [6] | Cav [7] | change from baseline in NK cell counts ([8]; week 12) | change from baseline in NK cell counts ([8]; week 24) | IC50 [9] | Cav,u ([1]; tofacitinib 5 mg BID) | reduction of CRP levels from baseline to week 12 ([2]; tofacitinib 5 mg BID) |
| --- | --- | --- | --- | --- | --- | --- | --- | --- | --- | --- | --- | --- | --- |
| CCS(=O)(=O)N1CC(CC#N)(n2cc(-c3ncnc4[nH]ccc34)cn2)C1 [Baricitinib] | 16.0 nmol/L | approximately −10 mg/L | 2.7 events per 100 patient-years | 4.3 events per 100 patient-years | initial increase in platelet counts, which then returned toward baseline | decreased from baseline to week 20, then returned to baseline or higher | 0.59 | 27 nmol/L | −57.0 cells/mm^3 | −53.4 cells/mm^3 | 14 nM |  |  |
| C[C@@H]1CCN(C(=O)CC#N)C[C@@H]1N(C)c1ncnc2[nH]ccc12 [Tofacitinib] |  |  |  |  |  |  |  |  |  |  |  | 41.0 nmol/L | -10.1 mg/L |
